Counter-ions that a name gives are not always drawn. Like-named read-outs stand apart in the source and are kept apart here.

Experiment [1] deals with T1, human alpha 1a adrenergic receptor (Homo sapiens, UniProt P35348).
T1 sequence (P35348 1-466): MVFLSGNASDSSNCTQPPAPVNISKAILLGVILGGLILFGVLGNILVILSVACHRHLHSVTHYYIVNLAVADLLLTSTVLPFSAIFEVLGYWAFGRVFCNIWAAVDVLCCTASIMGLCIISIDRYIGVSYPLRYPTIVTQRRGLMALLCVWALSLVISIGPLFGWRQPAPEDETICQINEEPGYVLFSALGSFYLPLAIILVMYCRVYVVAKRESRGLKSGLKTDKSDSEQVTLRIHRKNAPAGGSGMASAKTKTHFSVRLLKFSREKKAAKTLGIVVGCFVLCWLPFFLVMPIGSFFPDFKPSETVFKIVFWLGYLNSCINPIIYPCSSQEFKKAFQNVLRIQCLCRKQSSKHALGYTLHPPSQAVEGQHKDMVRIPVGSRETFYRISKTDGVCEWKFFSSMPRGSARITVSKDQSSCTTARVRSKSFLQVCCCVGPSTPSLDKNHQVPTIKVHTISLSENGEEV
Briefly: Alpha 1a Adrenergic Receptor Binding (competition binding, [125I]-HEAT). The settings on record: human alpha 1a membranes, [125I]-HEAT competition, room temperature, one hour. The procedure: Screening Assay: Alpha 1a Adrenergic Receptor Binding
Membranes prepared from the stably transfected human alpha 1a cell line (ATCC CRL 11140) were used to identify compounds that bind to the human alpha 1a adrenergic receptor. These competition binding reactions (total volume=200 μl) contained 50 mM Tris-HCl pH. 7.4, 5 mM EDTA, 150 mM NaCl, 100 pM [^125 I]-HEAT, membranes prepared from the alpha 1a cell line and increasing amounts of unlabeled ligand. Reactions were incubated at room temperature for one hour with shaking. Reactions were filtered onto Whatman GF/C glass fiber filters with a Inotec 96 well cell harvester. Filters were washed three times with ice cold buffer and bound radioactivity was determined (Ki).

The target in experiment [2] is T2, human alpha 1b adrenergic receptor (Homo sapiens, UniProt P35368).
T2 construct: host or cells: stably transfected cell line
T2 sequence (P35368 1-520): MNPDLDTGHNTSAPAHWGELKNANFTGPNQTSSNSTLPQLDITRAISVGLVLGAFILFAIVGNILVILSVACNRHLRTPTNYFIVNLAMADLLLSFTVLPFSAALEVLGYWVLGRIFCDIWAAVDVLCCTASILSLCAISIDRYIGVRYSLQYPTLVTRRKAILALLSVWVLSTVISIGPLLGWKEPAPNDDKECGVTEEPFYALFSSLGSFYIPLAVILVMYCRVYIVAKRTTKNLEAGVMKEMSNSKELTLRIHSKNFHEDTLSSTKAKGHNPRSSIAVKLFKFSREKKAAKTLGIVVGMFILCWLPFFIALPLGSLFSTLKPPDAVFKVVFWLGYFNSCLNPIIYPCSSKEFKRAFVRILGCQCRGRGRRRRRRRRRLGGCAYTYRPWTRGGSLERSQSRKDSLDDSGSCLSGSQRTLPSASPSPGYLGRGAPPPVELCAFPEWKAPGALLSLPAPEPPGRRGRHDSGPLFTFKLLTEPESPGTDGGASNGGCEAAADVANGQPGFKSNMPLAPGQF
Briefly: Selective Binding Assay, alpha 1b (competition binding, [125I]-HEAT). Particulars: alpha 1a versus alpha 1b, [125I]-HEAT competition binding. The procedure:
(§1) Membranes prepared from stably transfected human alpha 1d and alpha 1b cell lines (ATCC CRL 11138 and CRL 11139, respectively) were used to identify compounds that selectively bind to the human alpha 1a adrenergic receptor. These competition binding reactions (total volume=200 μl) contained 50 mM Tris-HCl pH. 7.4, 5 mM EDTA, 150 mM NaCl, 100 pM [^125 I]-HEAT, membranes prepared from cell lines transfected with the respective alpha 1 subtype expression plasmid and increasing amounts of unlabeled ligand. Reactions were incubated at room temperature for one hour with shaking. Reactions were filtered onto Whatman GF/C glass fiber filters with a Inotec 96 well cell harvester. Filters were washed three times with ice cold buffer and bound radioactivity was determined (Ki).

For experiment [3], the target named is T3, human alpha 1d adrenergic receptor (Homo sapiens, UniProt P25100).
T3 construct: host or cells: stably transfected cell line
T3 sequence (P25100 1-572): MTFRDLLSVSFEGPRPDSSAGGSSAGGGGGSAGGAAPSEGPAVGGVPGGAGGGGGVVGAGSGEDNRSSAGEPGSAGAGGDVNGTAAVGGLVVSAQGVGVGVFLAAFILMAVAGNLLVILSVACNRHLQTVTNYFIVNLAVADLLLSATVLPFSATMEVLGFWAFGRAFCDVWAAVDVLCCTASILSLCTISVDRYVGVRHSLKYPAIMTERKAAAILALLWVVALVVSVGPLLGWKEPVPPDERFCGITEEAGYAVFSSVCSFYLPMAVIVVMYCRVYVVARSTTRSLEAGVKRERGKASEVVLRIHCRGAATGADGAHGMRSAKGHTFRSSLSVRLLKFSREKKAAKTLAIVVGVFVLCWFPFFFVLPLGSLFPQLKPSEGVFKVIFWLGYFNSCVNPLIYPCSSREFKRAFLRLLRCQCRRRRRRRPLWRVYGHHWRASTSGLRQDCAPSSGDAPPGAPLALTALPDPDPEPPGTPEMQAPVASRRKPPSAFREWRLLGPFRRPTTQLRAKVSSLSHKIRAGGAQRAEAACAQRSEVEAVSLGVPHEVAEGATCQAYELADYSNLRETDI
Briefly: Selective Binding Assay, alpha 1d (competition binding, [125I]-HEAT). The settings on record: alpha 1a versus alpha 1d, [125I]-HEAT competition binding. The protocol: as §1

Take `O=C1NC2(CCc3cc(F)ccc32)C(=O)N1CCCN1CCC2(CCc3ccccc32)CC1` (racemic) [Compound 12, (+/ -)-1-{3-{Spiro[indano-1,4'-piperidin]-1-yl}propyl}-5'-fluoro-spiro[imidazoline-4,1'indan]-2,5-dione hydrochloride]: the Ki (commonly the dissociation constant of the complex between target and ligand, obtained from inhibition or displacement) in experiment [1] (alpha 1a Ki) was less than 10 nM. The compound `Cl.O=C1Nc2ccc(Cl)cc2C2(CCN(CCCN3C(=O)NC4(CCc5cc(F)ccc54)C3=O)CC2)O1` (racemic) [Compound 15, (+/ -)-1-{3-{6-Chlorospiro[4H-3,1-benzoxazine-4,4'-piperidin]-2(1H)-on-1'-yl}propyl}-5'-fluoro-spiro[imidazolidine-4,1'indan]-2,5-dione hydrochloride] came in with a Ki in experiment [1] (alpha 1a Ki) of less than 100 nM. The “fold more selective in binding to alpha 1a receptors versus binding to the alpha 1b receptors” value (shortened to “fold more selective … to the alpha 1b receptors”) in experiment [2] is “at least 10 fold”. The “fold more selective in binding to alpha 1a receptors versus binding to the alpha 1d receptors” value (“fold more selective … to the alpha 1d receptors” for short) in experiment [3] is listed as “at least 10 fold”. Take `N#Cc1cc(F)ccc1C1CCN(CCCN2C(=O)NC3(CCc4cc(F)c(F)cc43)C2=O)CC1` (racemic) [Compound 18, (+/ -)-1-{3-[4-(4-Fluoro-2-cyanophenyl)piperidin-1-yl]propyl}-5',6'-difluoro-spiro[imidazolidine-4,1'indan]-2,5-dione hydrochloride]: the Ki in experiment [1] (read-out: alpha 1a Ki) was less than 10 nM.

With `N#Cc1cc(F)ccc1C1CCN(CCCN2C(=O)NC3(CCc4cc(Cl)ccc43)C2=O)CC1` (racemic) [Compound 23, (+/ -)-1-{3-[4-(4-Fluoro-2-cyanophenyl)piperidin-1-yl]propyl}-5'-chloro-spiro[imidazolidine-4,1'indan]-2,5-dione hydrochloride], the Ki in experiment [1] (read-out: alpha 1a Ki) was less than 10 nM. In experiment [1] (alpha 1a Ki), `O=C1Nc2ccc(Cl)cc2C2(CCN(CCCN3C(=O)NC4(CCc5cc(Cl)ccc54)C3=O)CC2)O1` (racemic) [Compound 29, (+/ -)-1-{3-{6-Chlorospiro[4H-3,1-benzoxazine-4,4'-piperidin]-2(1H)-on-1'-yl}propyl}-5'-chloro-spiro[imidazolidine-4,1'indan]-2,5-dione hydrochloride] registered a Ki of less than 10 nM. The same measure, in the same setting: for `Cc1ccc2c(c1)CCC21NC(=O)N(CCCN2CCC3(CCc4ccccc43)CC2)C1=O` (racemic) [Compound 33, (+/ -)-1-{3-{Spiro[indano-1,4'-piperidin]-1-yl}propyl}-5'-methyl-spiro[imidazolidine-4,1'indan]-2,5-dione hydrochloride] the value was less than 10 nM.

On to `Cc1ccc2c(c1)CCC21NC(=O)N(CCCN2CCC(c3ccc(F)cc3C#N)CC2)C1=O` (racemic) [Compound 36, (+/ -)-1-{3-[4-(4-Fluoro-2-cyanophenyl)piperidin-1-yl]propyl}3-5'-methyl-spiro[imidazolidine-4,1'indan]-2,5-dione hydrochloride], for which the Ki in experiment [1] (read-out: alpha 1a Ki) is less than 10 nM. Still for that read-out and setting: for `N#Cc1cc(F)ccc1C1CCN(CCCN2C(=O)NC3(CCSc4cc(F)ccc43)C2=O)CC1` (racemic) [Compound 45, (+/ -)-1'-{3-[4-(4-Fluoro-2-cyano-phenyl)piperidin-1-yl]propyl}-7-fluoro-2,3-dihydro-spiro[4H-1-benzothiopyran-4,4'-imidazolidine]-2',5'-dione hydrochloride] the value was less than 10 nM. In the case of `Cl.N#CC1(c2ccccc2)CCN(CCCN2C(=O)NC3(CCCCc4ccc(F)cc43)C2=O)CC1` (racemic) [Compound 48, (+/ -)-1'-[3-(4-Cyano-4-phenylpiperidin-1-yl)propyl]-3-fluoro-6,7,8,9-tetrahydro-spiro[5H-benzocycloheptene-5,4'-imidazolidine]-2',5'-dione hydrochloride], the “fold more selective … to the alpha 1b receptors” value in experiment [2] is listed as “at least 10 fold”. Also, the “fold more selective … to the alpha 1d receptors” value in experiment [3] is given as “at least 10 fold”. For the compound `N#Cc1cc(F)ccc1C1CCN(CCCN2C(=O)NC3(CCCOc4cc(F)ccc43)C2=O)CC1` (racemic) [Compound 50, (+/ -)-1-{3-[4-(4-fluoro-2-cyano-phenyl)piperidin-1-yl]propyl}-8-fluoro-2,3,4,5-tetrahydro-spiro[1-benzoxepin-5(2H),4'-imidazolidine]-2',5'-dione hydrochloride], in experiment [1] (read-out: alpha 1a Ki), the inhibitory constant (Ki) is less than 10 nM.

Turning to `CC(CCN1C(=O)NC2(CCc3cc(Cl)ccc32)C1=O)N1CCC(c2ccc(F)cc2)CC1.Cl` (racemic) [Compound 51, (+/ -)-1-{3-[4-(4-fluorophenyl)piperidin-1-yl]butyl}-5'-chloro-spiro[imidazolidine-4,1'indan]-2,5-dione hydrochloride], the “fold more selective … to the alpha 1b receptors” value in experiment [2] was “at least 10 fold”. Moreover, the “fold more selective … to the alpha 1d receptors” value in experiment [3] was “at least 10 fold”. As for `Cc1ccc2c(c1)CCC21NC(=O)N(CCCN2CCC3(CCc4ccccc43)CC2)C1=O` (single isomer, unassigned; (+)) [Compound 35, (+)-1-{3-{spiro[indano-1,4'-piperidin]-1-yl}propyl}-5'-methyl-spiro[imidazolidine-4,1'indan]-2,5-dione], the Ki in experiment [1] (alpha 1a Ki) was less than 10 nM. `O=C1NC2(CCOc3cc(F)ccc32)C(=O)N1CCCN1CCC(c2ccc(F)cc2)CC1` (single isomer, unassigned; (+)) [Compound 42, (+)-1'-{3-[4-(4-fluorophenyl)piperidin-1-yl]propyl}-7-fluoro-2,3-dihydro-spiro[4H-1-benzopyran-4,4'-imidazolidine]-2',5'-dione]: the Ki in experiment [1] (read-out: alpha 1a Ki) is less than 10 nM. For `N#CC1(c2ccccc2)CCN(CCCN2C(=O)NC3(CCc4cc(F)ccc43)C2=O)CC1` (stereo not shown) [Compound 10], in experiment [1] (alpha 1a Ki), the Ki was less than 10 nM. Same read-out and setting: for `O=C1NC2(CCc3cc(F)ccc32)C(=O)N1CCCN1CCC2(CCc3ccccc32)CC1` (stereo not shown) [Compound 14] the value was less than 100 nM.

Consider `N#Cc1cc(F)ccc1C1CCN(CCCN2C(=O)NC3(CCc4cc(F)c(F)cc43)C2=O)CC1` (stereo not shown) [Compound 19], for which the Ki in experiment [1] (read-out: alpha 1a Ki) is less than 10 nM. In the case of `N#Cc1cc(F)ccc1C1CCN(CCCN2C(=O)NC3(CCc4cc(Cl)ccc43)C2=O)CC1` (stereo not shown) [Compound 24], in experiment [1] (read-out: alpha 1a Ki), the Ki is less than 10 nM. Compound `O=C1NC2(CCc3cc(Cl)ccc32)C(=O)N1CCCN1CCC2(CCc3ccccc32)CC1` (stereo not shown) [Compound 28] yielded a Ki in experiment [1] (alpha 1a Ki) of less than 10 nM.

These data come from US6316437A, “Spirohydantoin compounds and uses thereof” (Merck & Co., Inc., priority 2000, dated 2001).
